Tests used:
[1] = Viscosity of formulation components; format: physicochemical; details: neat component as listed in formulation tables
[2] = after nasal administration, adults; cited from earlier work
[3] = Intranasal versus intravenous pharmacokinetics in New Zealand White rabbits; details: 5 mg/mL in mPEG 350, 50 μL into each nasal cavity
Description: In this Example, 10 mg lorazepam is dissolved in 2 mL of mPEG 350 using ultrasound to obtain a solution containing 5 mg/mL of lorazepam. 50 μL of the resulting composition is administered into each nasal cavity of male New Zealand White rabbits held in a supine position during, and then one minute after application. An Eppendorf pipette is used for each application. After administration, blood samples then are harvested from a marginal ear vein at 0, 2, 5, 10, 15, 30 and 60 minutes, and the lorazepam concentration determined by high performance liquid chromatography (HPLC). The pharmacokinetics of lorazepam delivery via intranasal administration can then be compared with the pharmacokinetics of lorazepam delivery by intravenous administration.
In this Example, 10 mg of midazolam is dissolved in 2 mL of mPEG 350 using ultrasound to obtain a solution containing 5 mg/mL midazolam. 50 μL of the resulting composition is then administered into each nasal cavity of male New Zealand White rabbits, held in a supine position during, and then one minute after application. After administration, blood samples then are harvested from a marginal ear vein at 0, 2, 5, 10, 15, 30 and 60 minutes, and the midazolam concentration determined by HPLC. […]

[4] = nasal gel, carbopol in PEG 400, rats; cited from earlier work

Compound: CC(O)CO (stereo not drawn) [Propylene glycol]
- Viscosity (cP) of component [1]: 40 cP

Compound: O [Water]
- Viscosity (cP) of component [1]: 1 cP

Compound: O=C1Nc2ccc(Cl)cc2C(c2ccccc2Cl)=NC1O (stereo not drawn) [lorazepam]
- Time to peak concentration [2]: 2.3 h
- Pharmacokinetics of intranasal versus intravenous administration [3]: comparable to those of the intravenously administered lorazepam

Compound: Cc1ncc2n1-c1ccc(Cl)cc1C(c1ccccc1F)=NC2 [midazolam]
- Pharmacokinetics of intranasal versus intravenous administration [3]: comparable to those of the intravenously administered midazolam

Compound: COC(=O)C1=C(C)NC(C)=C(C(=O)OC)C1c1ccccc1[N+](=O)[O-] [nifedipine]
- Time to peak plasma concentration [4]: 30 min

Reference: US10052333B2, “Methods and systems for the delivery of a therapeutic agent” (HANANJA EHF, priority 2007, dated 2018)
